From patent US20250340529A1, “Heterocyclic Compounds as Immunomodulators of PD-L1 Interactions” (Ascletis BioScience Co., Ltd, priority 2021, published 2025)

How the values were obtained:
PD-1/PD-L1 = PD-1/PD-L1 (Homo sapiens (Human), UniProt Q9NZQ7); test: PD-1/PD-L1 Homogeneous Time-Resolved Fluorescence (HTRF) binding assay; details: 3 nM PD1, 10 nM PD-L1, 25° C., PBS pH 7.4
Description: PD-1/PD-L1 Homogeneous Time-Resolved Fluorescence (HTRF) Binding Assay
The assays were conducted in a standard black 384-well polystyrene plate with a final volume of 20 μL. Inhibitors were first serially diluted in DMSO and then added to the plate wells before the addition of other reaction components. The final concentration of DMSO in the assay was 1%. The assays were carried out at 25° C. in the PBS buffer (pH 7.4) with 0.05% Tween-20 and 0.1% BSA. Recombinant human PD-L1 protein (19-238) with a Histag at the C-terminus was purchased from AcroBiosystems (PD1-H5229). Recombinant human PD-1 protein (25-167) with Fe tag at the C-terminus was also purchased from AcroBiosystems (PD1-H5257). PD-L1 and PD-1 proteins were diluted in the assay buffer and 10 μL was added to the plate well. Plates were centrifuged and proteins were preincubated with inhibitors for 40 minutes. The incubation was followed by the addition of 10 μL of HTRF detection buffer supplemented with Europium cryptate-labeled anti-human IgG (PerkinElmer-AD0212) specific for Fe and anti-His antibody conjugated to SureLight®-Allophycocyanin (APC, PerkinElmer-AD0059H). After centrifugation, the plate was incubated at 25° C. for 60 min. before reading on a PHERAstar FS plate reader (665 nm/620 nm ratio). Final concentrations in the assay were—3 nM PD1, 10 nM PD-L1, 1 nM europium anti-human IgG and 20 nM anti-His-Allophycocyanin. IC50 determination was performed by fitting the curve of percent control activity versus the log of the inhibitor concentration.

[1] = biological target: extracellular domains of PD-L1 (Homo sapiens (Human), UniProt Q9NZQ7); test: PD-L1 dimerization (biochemical protein-protein interaction assay); details: PDL1-Eu and PDL1-A2, 25° C., 120 min
Description: Compounds were tested in biochemical protein-protein interaction assays to determine if they can specifically dimerize the extracellular domains of PD-L1. • (1) Dilute cpd 1:3 in succession in DMSO for each column for 10±0 pts (refer to dilution plate map) • (2) Transfer 0.2 μL cpds solution in each row to 384 assay plate using Echo, each column containing 2 replicates (refer to assay plate map). • (3) Add 20 μL prepared mixture include PDL1-Eu and PDL1-A2 solution to assay plate, centrifuge at 1000 rpm for 1 min. • (4) Incubate at 25° C. for 120 min. • (5) Read fluorescence signal on Envision 2104 plate reader. • (6) Read the Ratio (665 nm/615 nm) signal on Envision. • (7) Analyze the raw data using the equation (V. Data analysis)

PD-L1/CHO-K1 cells = PD-L1/CHO-K1 cells (Homo sapiens (Human), UniProt Q9NZQ7); test: PD-L1 internalization (FACS, PD-L1/CHO-K1 cells); assay type: cell-based; details: % activation of PD-L1 internalization = 1 − PD-L1 signal; 17 hours incubation
Description: Day 1. Seeding cells: Digest the PD-L1/CHO-K1 cells by trypsin in the flask, then counting the cell number and diluted to 1×10^5 cells/ml. Seeding cells to 6 well plate (Corning, #3516), 2 mL/well. The plates were incubated at 37° C., […] incubator for 24 hours.
Day 2. Preparing compounds and treated cells: Dilute GLC01-258 from 15 mM to 0.5 mM by using DMSO, and 15 mM compound were serial diluted from 15 mM˜15 nM by DMSO, Then 500 times dilute the compounds by using assay buffer. Prepare 0.2% DMSO in assay buffer used for Vehicle control and low control. Take out the plates, aspirated the medium and thrown away. Adding 2 mL of the diluted compounds, vehicle control and low control to corresponding wells. Then incubated the plates for 17 hours at 37° C., 5% CO2 incubator.
Day 3. Preparing samples for FACS: After 17 hours incubation, discarded medium and washed by the PBS. Cells in each well were Digested by trypsin. Centrifuge and discard the supernatant, then wash the cells by DPBS (Ca^2+, Mg^2+ free) for twice. 10 fold dilute the antibody (PE-conjugated mouse anti-human CD274) by DPBS, then adding the staining solution to compounds treated samples and vehicle control sample. The low control only add DPBS without antibody. Incubate the plates at room temperature for 20 minutes and protect from light. After 20 minutes, wash the samples by DPBS for twice. Then centrifuge and discard the supernatant. Resuspend cells by 300 uL DPBS and transfer the samples to 5 mL Polystryrene Round-Bottom Tube (Falcon, #352054), then tested by BD FACSCanto. […].
Set the PD-L1 signal of vehicle control as 100%, PD-L1 signal of Low control as 0%. Then calculate the compound treated samples' PD-L1 signal
0% PD-L1 signal: Low control which stained without anti-CD274
100% PD-L1 Signal: vehicle control which stained with anti-CD274
The % activation of PD-L1 Internalization=1−PD-L1 signal of compound.

PD-L1/CHO-K1 cells, sequence (Q9NZQ7 19-290): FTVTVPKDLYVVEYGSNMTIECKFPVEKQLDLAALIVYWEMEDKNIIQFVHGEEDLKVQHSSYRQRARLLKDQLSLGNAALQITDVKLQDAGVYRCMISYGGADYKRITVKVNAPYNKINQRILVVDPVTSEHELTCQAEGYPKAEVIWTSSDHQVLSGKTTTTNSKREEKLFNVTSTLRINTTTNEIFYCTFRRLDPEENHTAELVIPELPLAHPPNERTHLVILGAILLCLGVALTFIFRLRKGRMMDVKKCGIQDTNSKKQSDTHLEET
extracellular domains of PD-L1, sequence (Q9NZQ7 19-238): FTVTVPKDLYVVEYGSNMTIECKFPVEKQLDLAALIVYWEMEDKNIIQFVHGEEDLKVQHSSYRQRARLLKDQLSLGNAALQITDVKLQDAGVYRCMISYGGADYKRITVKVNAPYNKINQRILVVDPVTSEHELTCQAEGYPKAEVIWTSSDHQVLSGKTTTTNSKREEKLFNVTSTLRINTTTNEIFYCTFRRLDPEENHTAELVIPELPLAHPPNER
PD-1/PD-L1, sequence (Q9NZQ7 19-238): as above

Structure (SMILES)	IC50 (PD-1/PD-L1) [nM]	EC50 [1] [nM]	Internalization (PD-L1/CHO-K1 cells) [%]
O=C(O)C[C@H](CO)NCCN1C(=O)COc2cc(-c3cccc(-c4cccc(-c5ccc6c(c5)OCC(=O)N6CCN[C@@H](CO)CC(=O)O)c4Cl)c3Cl)ccc21 [Compound 528]	5.04	175	13.30
O=C1COc2cc(-c3cccc(-c4cccc(-c5ccc6c(c5)OCC(=O)N6C[C@@H]5CCCN5)c4Cl)c3Cl)ccc2N1C[C@@H]1CCCN1 [Compound 411, 7,7′-(2,2′-dichloro-[1,1′-biphenyl]-3,3′-diyl)bis(4-(((S)-pyrrolidin-2-yl)methyl)-2H-benzo[b][1,4]oxazin-3(4H)-one)]	6.14	357	66.90
COC[C@H](NCCN1C(=O)COc2cc(-c3cccc(-c4cccc(-c5ccc6c(c5)OCC(=O)N6CCN[C@@H](COC)C(=O)O)c4Cl)c3Cl)ccc21)C(=O)O [Compound 588]	7.35	154	2.00
Cc1c(-c2ccc3c(c2)OCC(=O)N3CCN[C@@H](CO)C(=O)O)cccc1-c1cccc(-c2ccc3c(c2)OCC(=O)N3CCN[C@@H](CO)C(=O)O)c1C [Compound 585]	10.9	130	39.00
O=C(O)[C@@H]1C[C@@H](O)CN1CCN1C(=O)COc2cc(-c3cccc(-c4cccc(-c5ccc6c(c5)OCC(=O)N6CCN5C[C@H](O)C[C@H]5C(=O)O)c4Cl)c3Cl)ccc21 [Compound 454]	1.42	326	5.20
O=C1COc2cc(-c3cccc(-c4cccc(-c5ccc6c(c5)OCC(=O)N6C[C@@H]5CC(F)(F)CN5)c4Cl)c3Cl)ccc2N1C[C@@H]1CC(F)(F)CN1 [Compound 530]	76.9		1.60
O=C1COc2cc(-c3cccc(-c4cccc(-c5ccc6c(c5)OCC(=O)N6CCN5CC[C@H](O)C5)c4Cl)c3Cl)ccc2N1CCN1CC[C@H](O)C1 [Compound 476]	5.22		6.10
C[C@H](NCCN1C(=O)COc2cc(-c3cccc(-c4cccc(-c5ccc6c(c5)OCC(=O)N6CCN[C@@H](C)C(=O)O)c4Cl)c3Cl)ccc21)C(=O)O [Compound 536]	4.31		7.90
C[C@H](CN1C(=O)COc2cc(-c3cccc(-c4cccc(-c5ccc6c(c5)OCC(=O)N6C[C@@H](C)N[C@@H](CO)C(=O)O)c4Cl)c3Cl)ccc21)N[C@@H](CO)C(=O)O [Compound 563, (2S,2'S)-2,2′-(((2R,2′R)-((2,2′-dichloro-[1,1′-biphenyl]-3,3′-diyl)bis(3-oxo-2,3-dihydro-4H-benzo[b][1,4]oxazine-7,4-diyl))bis(propane-1,2-diyl))bis(azanediyl))bis(3-hydroxypropanoic acid)]	7.18	37.7	25.50
O=C(O)[C@H](CO)NCCN1C(=O)COc2cc(-c3cccc(-c4cccc(-c5cc(F)c6c(c5)OCC(=O)N6CCN[C@@H](CO)C(=O)O)c4Cl)c3Cl)cc(F)c21 [Compound 561]	8.95		5.30
CN(CCN1C(=O)COc2cc(-c3cccc(-c4cccc(-c5ccc6c(c5)OCC(=O)N6CCN(C)C[C@@H]5CCC(=O)N5)c4Cl)c3Cl)ccc21)C[C@@H]1CCC(=O)N1 [Compound 460]	9.9		1.90
O=C1CC[C@@H](CN2C(=O)COc3cc(-c4cccc(-c5cccc(-c6cc7c(cc6F)N(C[C@@H]6CCC(=O)N6)C(=O)CO7)c5Cl)c4Cl)c(F)cc32)N1 [Compound 388]	1.1		6.10
O=C(O)[C@@H](CO)NCCN1C(=O)COc2cc(-c3cccc(-c4cccc(-c5ccc6c(c5)OCC(=O)N6CCN[C@H](CO)C(=O)O)c4Cl)c3Cl)ccc21 [Compound 483]	6.31		19.80
O=C(O)CC(O)CNCCN1C(=O)COc2cc(-c3cccc(-c4cccc(-c5ccc6c(c5)OCC(=O)N6CCNCC(O)CC(=O)O)c4Cl)c3Cl)ccc21 (centres unmarked) [Compound 470]	2.28		20.90
NCCN1C(=O)COc2cc(-c3cccc(-c4cccc(-c5ccc6c(c5)OCC(=O)N6CCN)c4Cl)c3Cl)ccc21 [Compound 538]	8.18		3.60
C[C@@H](CN1C(=O)COc2cc(-c3cccc(-c4cccc(-c5ccc6c(c5)OCC(=O)N6C[C@H](C)N[C@@H](CO)C(=O)O)c4Cl)c3Cl)ccc21)N[C@@H](CO)C(=O)O [Compound 550]	3.96	225	3.00
O=C1CC[C@@H](CN2C(=O)COc3cc(-c4cccc(-c5cccc(-c6ccc7c(c6)OCC(=O)N7C[C@@H]6CCC(=O)N6)c5Cl)c4Cl)ccc32)N1 [Compound 338]	1.46		6.80
O=C1COc2cc(-c3cccc(-c4cccc(-c5ccc6c(c5)OCC(=O)N6C[C@@H]5C[C@@H](O)CN5)c4Cl)c3Cl)ccc2N1C[C@@H]1C[C@@H](O)CN1 [Compound 472]	5.27	359	17.20
C[C@H]1CC[C@@H](CN2C(=O)COc3cc(-c4cccc(-c5cccc(-c6ccc7c(c6)OCC(=O)N7C[C@@H]6CC[C@H](C)N6)c5Cl)c4Cl)ccc32)N1 [Compound 535]	4.41	354	21.00
